Laboratory results from ChEMBL document CHEMBL1201862, “PubChem BioAssay data set” (2004).
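Assay format: 96-well plates, 48-hour exposure. GI50 = concentration required for 50% inhibition of growth.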 Active and inactive are the calls of the source. Cut-off read from the data, not from the text of the source: active = GI50 up to about 1.1 µM and inactive = higher.

Tests used:
Assay in all cases: DTP human tumour cell line panel, 48 h
[1] = test system: HL-60
[2] = test system: SK-MEL-28
[3] = test system: LOX IMVI
[4] = test system: DLD-1
[5] = test system: SF-539
[6] = test system: A549
[7] = test system: LXFL 529
[8] = test system: UACC-257
[9] = test system: IGROV-1
[10] = test system: SK-MEL-2
[11] = test system: HCC 2998
[12] = test system: SNB-19
[13] = test system: EKVX
[14] = test system: HT-29
[15] = test system: ACHN
[16] = test system: SF-268
[17] = test system: HOP-92
[18] = test system: A498
[19] = test system: TK-10
[20] = test system: COLO 205
[21] = test system: SNB-75
[22] = test system: XF498
[23] = test system: HCT-116
[24] = test system: U-251
[25] = test system: OVCAR-3
[26] = test system: DMS-114
[27] = test system: HOP-62
[28] = test system: HOP-18
[29] = test system: NCI-H23
[30] = test system: SNB-78
[31] = test system: M19-MEL
[32] = test system: SR
[33] = test system: NCI-H460
[34] = test system: NCI-H226
[35] = test system: RPMI-8226
[36] = test system: OVCAR-8
[37] = test system: SF-295
[38] = test system: 786-0
[39] = test system: SN12C
[40] = test system: MOLT-4
[41] = test system: UO-31
[42] = test system: OVCAR-4
[43] = test system: RXF 393
[44] = test system: Malme-3M
[45] = test system: SW-620
[46] = test system: K562
[47] = test system: KM-20L2
[48] = test system: OVCAR-5
[49] = test system: HCT-15
[50] = test system: KM12
[51] = test system: NCI-H522
[52] = test system: NCI/ADR-RES
[53] = test system: CCRF-CEM
[54] = test system: SK-MEL-5
[55] = test system: DMS-273
[56] = test system: MCF7
[57] = test system: SK-OV-3
[58] = test system: UACC-62
[59] = test system: CAKI-1

In the case of O=c1c2cc(Br)ccc2n(C2OC(CO)C(O)C(O)C2O)c(=S)n1-c1ccccc1 (centres undefined), the GI50 [1] is reported as > 100 µM (inactive), the GI50 [2] is reported as > 100 µM (inactive) and the GI50 [3] is reported as > 100 µM (inactive). The GI50 [4] was > 100 µM (inactive), the GI50 [5] was > 100 µM (inactive) and the GI50 [6] was > 100 µM (inactive). The GI50 [7] was 74.3 µM (inactive), the GI50 [8] was > 100 µM (inactive) and the GI50 [9] was > 100 µM (inactive). For the same molecule, the GI50 [10] was > 100 µM (inactive), the GI50 [11] was > 100 µM (inactive) and the GI50 [12] was > 100 µM (inactive). The GI50 [13] was > 100 µM (inactive), the GI50 [14] was > 100 µM (inactive) and the GI50 [15] was > 100 µM (inactive). The GI50 [16] was > 100 µM (inactive), the GI50 [17] was 98.2 µM (inactive) and the GI50 [18] was > 100 µM (inactive). For the same molecule, the GI50 [19] was > 100 µM (inactive), the GI50 [20] was > 100 µM (inactive) and the GI50 [21] was 68.1 µM (inactive). For the same molecule, the GI50 [22] was 50.5 µM (inactive), the GI50 [23] was > 100 µM (inactive) and the GI50 [24] was > 100 µM (inactive). The GI50 [25] was > 100 µM (inactive), the GI50 [26] was > 100 µM (inactive) and the GI50 [27] was > 100 µM (inactive). The GI50 [28] was > 100 µM (inactive), the GI50 [29] was > 100 µM (inactive) and the GI50 [30] was > 100 µM (inactive). For the same molecule, the GI50 [31] was > 100 µM (inactive), the GI50 [32] was 73.3 µM (inactive) and the GI50 [33] was > 100 µM (inactive). For the same molecule, the GI50 [34] was > 100 µM (inactive), the GI50 [35] was > 100 µM (inactive) and the GI50 [36] was > 100 µM (inactive). For the same molecule, the GI50 [37] was > 100 µM (inactive), the GI50 [38] was 82.4 µM (inactive) and the GI50 [39] was > 100 µM (inactive). The GI50 [40] was 86.7 µM (inactive), the GI50 [41] was > 100 µM (inactive) and the GI50 [42] was > 100 µM (inactive). The GI50 [43] was > 100 µM (inactive), the GI50 [44] was > 100 µM (inactive) and the GI50 [45] was > 100 µM (inactive). The GI50 [46] was > 100 µM (inactive), the GI50 [47] was > 100 µM (inactive) and the GI50 [48] was > 100 µM (inactive). For the same molecule, the GI50 [49] was over 100 µM, the GI50 [50] was > 100 µM (inactive) and the GI50 [51] was > 100 µM (inactive).
In the case of CCN(CC)CCNC(=O)C1COc2ccc(-c3cc(=O)c4ccccc4o3)cc2O1 (centres undefined), the GI50 [1] is reported as 13.2 µM (inactive), the GI50 [2] is reported as 17.4 µM (inactive) and the GI50 [3] is reported as 17.2 µM (inactive). The GI50 [4] was 22.9 µM (inactive), the GI50 [5] was 15.8 µM (inactive) and the GI50 [52] was 19.2 µM (inactive). The GI50 [6] was 23.6 µM (inactive), the GI50 [53] was 19.1 µM (inactive) and the GI50 [8] was 17.6 µM (inactive). The GI50 [9] was 28.9 µM (inactive), the GI50 [10] was 19.8 µM (inactive) and the GI50 [11] was 19.2 µM (inactive). The GI50 [12] was 20.2 µM (inactive), the GI50 [13] was 26.7 µM (inactive) and the GI50 [14] was 14.9 µM (inactive). The GI50 [54] was 20.9 µM (inactive), the GI50 [16] was 19.5 µM (inactive) and the GI50 [17] was 19.1 µM (inactive). For the same molecule, the GI50 [18] was 16 µM (inactive), the GI50 [20] was 17.9 µM (inactive) and the GI50 [21] was 17.2 µM (inactive). The GI50 [22] was 22.6 µM (inactive), the GI50 [55] was 19.4 µM (inactive) and the GI50 [56] was 19.4 µM (inactive). For the same molecule, the GI50 [23] was 17.8 µM (inactive), the GI50 [24] was > 45.2 µM (inactive) and the GI50 [25] was 21.2 µM (inactive). For the same molecule, the GI50 [27] was 21.4 µM (inactive), the GI50 [28] was 21 µM (inactive) and the GI50 [29] was 22 µM (inactive). For the same molecule, the GI50 [57] was 23 µM (inactive), the GI50 [30] was 10.1 µM (inactive) and the GI50 [31] was 18.3 µM (inactive). For the same molecule, the GI50 [33] was 16.8 µM (inactive), the GI50 [34] was 16.6 µM (inactive) and the GI50 [35] was 22.5 µM (inactive). For the same molecule, the GI50 [36] was 16.7 µM (inactive), the GI50 [37] was 18.5 µM (inactive) and the GI50 [39] was 19.1 µM (inactive). For the same molecule, the GI50 [40] was 20.6 µM (inactive), the GI50 [41] was 16 µM (inactive) and the GI50 [42] was 18.5 µM (inactive). For the same molecule, the GI50 [43] was 20 µM (inactive), the GI50 [44] was 16 µM (inactive) and the GI50 [45] was 18.5 µM (inactive). For the same molecule, the GI50 [46] was 16 µM (inactive), the GI50 [47] was 17.5 µM (inactive) and the GI50 [48] was 22.3 µM (inactive). The GI50 [49] was 15.5 µM, the GI50 [58] was 17.6 µM (inactive) and the GI50 [59] was 20.5 µM (inactive). For the same molecule, the GI50 [50] was 18.2 µM (inactive) and the GI50 [51] was 18.2 µM (inactive).
